Results from US6521623B1, “N,N'-disubstituted benzimidazolone derivatives with affinity at the serotonin and dopamine receptors” (Boehringer Ingelheim Pharma KG, priority 2000, dated 2003).
Where two headings read alike, the source gives them in different places.

Key:
5-HT1A [1] = biological target: T1, 5-HT1A (Homo sapiens, UniProt P08908); assay: 5-HT1 Functional Assay (cAMP) in CHO/5-HT1A cells; assay type: cell-based; set-up: expressed in transfected cells; host or cells: CHO/5-HT1A cells
T1 sequence (P08908 1-422): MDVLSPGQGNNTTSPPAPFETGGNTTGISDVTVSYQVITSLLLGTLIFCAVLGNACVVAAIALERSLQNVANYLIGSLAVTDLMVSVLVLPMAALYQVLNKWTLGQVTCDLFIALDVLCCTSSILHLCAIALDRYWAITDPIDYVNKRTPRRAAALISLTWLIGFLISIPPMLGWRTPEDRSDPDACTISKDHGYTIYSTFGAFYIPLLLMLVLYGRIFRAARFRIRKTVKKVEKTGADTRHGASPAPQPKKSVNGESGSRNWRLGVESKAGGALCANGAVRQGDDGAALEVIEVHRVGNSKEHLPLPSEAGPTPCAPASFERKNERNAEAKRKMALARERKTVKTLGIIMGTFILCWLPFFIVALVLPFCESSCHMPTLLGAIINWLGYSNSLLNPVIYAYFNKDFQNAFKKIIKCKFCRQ
Description: 5-HT1 Functional Assay (cAMP)
CHO/5-HT1A cells were random seeded at a density of about 200,000/well in 24 well plates the day prior to the experiment. On the day of the experiment, cells were pretreated for 15 minutes at 37° C. with 500 μM isobutylmethylxantine (IBMX) dissolved in culture medium without serum. Wells were then divided in different groups in duplicate as follows: control, 10 μM FSK, 10 μM FSK+1 μM 5-HT as positive standard and 10 μM FSK+10 μM of the different compound under evaluation. Sample solutions were added and incubated for additional 15 minutes at 37° C. After incubation, the medium was aspirated and the reaction stopped by adding 200 μl of lysis buffer. Plates were shaken for 5 minutes, then the lysate was removed and samples were stored at 4° C. until the day of the assay. For the cAMP evaluation, samples were properly diluted and the cAMP content was measured by an enzyme immunoassay system.

D4 human receptors = biological target: T2, D4 human receptors (Homo sapiens, UniProt P21917); assay: D4 Radioligand Receptor Binding Assay ([3H] YM-09151-2, CHO cell membranes); conditions: compound 10^−7 M, singlicate, [3H] YM-09151-2 0.15-0.25 nM
T2 construct: expressed in transfected cells; host or cells: CHO cells
T2 sequence (P21917 1-419): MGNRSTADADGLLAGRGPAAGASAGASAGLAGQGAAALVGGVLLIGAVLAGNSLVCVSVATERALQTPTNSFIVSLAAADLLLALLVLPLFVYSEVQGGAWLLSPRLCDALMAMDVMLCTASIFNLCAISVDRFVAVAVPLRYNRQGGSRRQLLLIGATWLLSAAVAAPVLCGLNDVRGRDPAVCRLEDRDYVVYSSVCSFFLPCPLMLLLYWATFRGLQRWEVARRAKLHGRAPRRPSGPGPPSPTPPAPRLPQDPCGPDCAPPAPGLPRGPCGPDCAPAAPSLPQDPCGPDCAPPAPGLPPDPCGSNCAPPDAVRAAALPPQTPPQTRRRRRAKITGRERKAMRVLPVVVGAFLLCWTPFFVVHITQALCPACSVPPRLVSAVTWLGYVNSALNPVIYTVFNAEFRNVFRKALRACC
Description: D4 Radioligand Receptor Binding Assay
Membranes from CHO cells expressing D4 human receptors, were suspended in incubation buffer.
Binding assays were performed in MultiProbe 204 pipetting system (Packard), according to a predetermined mapping, consistent with the software Screen. The compounds were tested in singlicate at one concentration (10^−7 M) in a total volume of 1000 μl (980 μl of diluted membranes, 10 μl DMSO or unlabelled ligand and 10 μl of [^3H] YM-09151-2 (0.15-0.25 nM). After incubation for 120 minutes at 27° C., the reaction was stopped by rapid filtration through Tomtec Cell Harvester (48 wells) using Filtermat B (presoaked in 0.1% PEI) filters. Filters were washed with ice-cold 50 mM Tris-HCl (pH 7.4) buffer (9×700 μl), dried, covered with MeltiLex B/HS (Wallac) scintillator sheets and heated in oven at 80° C. to 90° C. for about 10 minutes, transferred into plastic sample bags (Wallac), sealed, and put into 1024 Beta Plate scintillation counter (Wallac). Non-specific binding was determined in the presence of clozapine dissolved in DMSO to a final concentration of 10^−5 M.
(§1) The specific radioligand binding to the receptor was defined by the difference between total binding and non-specific binding, determined in the presence of an excess of unlabelled ligand. Results were expressed as percentage of control specific binding obtained in the presence of the compounds.

5-HT1A [2] = biological target: T1, 5-HT1A; assay: 5HT1A Radioligand Receptor Binding Assay ([3H]-8-OH-DPAT, CHO cell membranes); set-up: expressed in transfected cells; host or cells: CHO cells; conditions: for inhibition at 0.1 µM / 5-HT1A Receptor Binding Assay % inhibition (10^−7 M): compound 10^−7 M, singlicate, [3H]-8-OH-DPAT 0.6-0.7 nM
Description: 5HT1A Radioligand Receptor Binding Assay
Membranes from CHO cells, expressing 5-HT1A human receptors were suspended in incubation buffer.
Binding assays were performed in MultiProbe 204 pipetting system (Packard), according to a predetermined mapping, consistent with the software Screen. The compounds were tested in singlicate at one concentration (10^−7 M) in a total volume of 1000 μl. 980 μl of diluted membranes, 10 μl DMSO or unlabelled ligand and 10 μl of [^3H]-8-OH-DPAT (0.6-0.7 nM) were incubated for 60 minutes at 27° C. The reaction was stopped by rapid filtration through Tomtec Cell Harvester (48 wells) using Filtermat B (presoaked in 0.1% PEI) filters. Filters were washed with ice-cold 50 mM Tris-HCl (pH 7.4) buffer (9×700 μl), dried, covered with MeltiLex B/HS scintillator sheets (Wallac) and heated at 80° C. to 90° C. for about 10 minutes, transferred into plastic sample bags (Wallac), sealed, and put into 1024 Beta Plate scintillation counter (Wallac). Non-specific binding was determined in the presence of 5-HT (10^−5 M).
as §1, with “compounds. The affinity values (IC50) for the compounds were obtained by a nonlinear least squares regression analysis on the basis of a one binding site model.” for “compounds.”

[3] = [3H]-8-OH-DPAT, CHO membranes, human 5-HT1A, read-out: 5-HT1A Receptor Binding IC50

| SMILES | D4 Receptor Binding Assay % inhibition (10^−7 M) (D4 human receptors) [%] | 5-HT1A Receptor Binding Assay % inhibition (10^−7 M) (5-HT1A [2]; CHO membranes, human 5-HT1A) [%] | inhibition at 10 µM (5-HT1A [1]) [%] | IC50 (5-HT1A [2]; [3]) [nM] | further results |
| --- | --- | --- | --- | --- | --- |
| O=c1n(CCN2CCOCC2)c2ccccc2n1CCN1CCN(c2cccc(C(F)(F)F)c2)CC1 [Compound 228] |  |  | 82 | 6 | inhibition at 0.1 µM (D4 human receptors): 33%; inhibition at 0.1 µM (5-HT1A [2]; CHO membranes, human 5-HT1A): 95% |
| COCCn1c(=O)n(C/C=C\CN2CCN(c3cccc(C(F)(F)F)c3)CC2)c2ccccc21 [Compound 284] |  |  | 82 | 4.9 |  |
| COCCn1c(=O)n(C/C=C\CN2CC=C(c3ccccc3)CC2)c2ccccc21 [Compound 285] |  |  | 47 |  | inhibition at 0.1 µM (D4 human receptors): 32%; IC50 (5-HT1A [2]): 5.2 nM; inhibition at 0.1 µM (5-HT1A [2]; CHO membranes, human 5-HT1A): 96% |
| COCCn1c(=O)n(C/C=C/CN2CCN(c3cccc(C(F)(F)F)c3)CC2)c2ccccc21 [Compound 301] |  |  | 83 | 2.6 |  |
| O=c1n(C/C=C/CN2CCN(c3cccc(Cl)c3)CC2)c2ccccc2n1CCN1CCOCC1 [Compound 348] |  |  | 57 | 3.5 |  |
| O=c1n(C/C=C\CN2CCc3c([nH]c4ccccc34)C2)c2ccccc2n1CCO [Compound 367] | 90 | 61 |  |  |  |
| O=c1n(C/C=C/CN2CCN(c3ccccc3)CC2)c2ccccc2n1CCO [Compound 378] | 35 | 77 |  |  |  |
| O=c1n(C/C=C/CN2CCN(c3cccc(Cl)c3)CC2)c2ccccc2n1CCO [Compound 382] |  |  | 64 | 11 | inhibition at 0.1 µM (D4 human receptors): 39%; inhibition at 0.1 µM (5-HT1A [2]; CHO membranes, human 5-HT1A): 88% |
| O=c1n(C/C=C/CN2CCN(c3cccc(C(F)(F)F)c3)CC2)c2ccccc2n1CCO [Compound 386] |  |  | 82 | 6.7 |  |
| CCNC(=O)OCCn1c(=O)n(C/C=C\CN2CCN(c3ccccc3)CC2)c2ccccc21 [Compound 395] | 32 | 86 |  |  |  |
| CCNC(=O)OCCn1c(=O)n(C/C=C\CN2CCN(c3cccc(C(F)(F)F)c3)CC2)c2ccccc21 [Compound 403] |  |  | 84 | 5.5 |  |
| CCNC(=O)OCCn1c(=O)n(C/C=C\CN2CC=C(c3ccccc3)CC2)c2ccccc21 [Compound 404] |  |  | 60 | 2.1 | inhibition at 0.1 µM (D4 human receptors): 34%; inhibition at 0.1 µM (5-HT1A [2]; CHO membranes, human 5-HT1A): 95% |
| CCNC(=O)OCCn1c(=O)n(C/C=C/CN2CCN(c3ccccc3)CC2)c2ccccc21 [Compound 412] | 39 | 93 |  |  |  |
| CCNC(=O)OCCn1c(=O)n(C/C=C/CN2CCN(c3cccc(C(F)(F)F)c3)CC2)c2ccccc21 [Compound 420] |  |  | 87 | 1.8 |  |
| CCNC(=O)OCCn1c(=O)n(C/C=C/CN2CC=C(c3ccccc3)CC2)c2ccccc21 [Compound 421] |  |  | 56 | 0.66 |  |
| CC(=O)NCCn1c(=O)n(C/C=C/CN2CCN(c3cccc(C(F)(F)F)c3)CC2)c2ccccc21 [Compound 481] |  |  | 82 | 11 |  |
| CS(=O)(=O)NCCn1c(=O)n(C/C=C\CN2CCN(c3cccc(Cl)c3)CC2)c2ccccc21 [Compound 499] |  |  | 74 | 5 |  |
| CS(=O)(=O)NCCn1c(=O)n(C/C=C\CN2CCc3c([nH]c4ccccc34)C2)c2ccccc21 [Compound 501] | 63 | 70 |  |  |  |
| CS(=O)(=O)NCCn1c(=O)n(C/C=C\CN2CCN(c3ccc(Cl)c(Cl)c3)CC2)c2ccccc21 [Compound 505] | 58 | 78 |  |  |  |
| CS(=O)(=O)NCCn1c(=O)n(C/C=C/CN2CCN(c3cccc(C(F)(F)F)c3)CC2)c2ccccc21 [Compound 525] |  |  | 87 | 1.5 |  |
| COc1ccccc1N1CCN(C/C=C/Cn2c(=O)n(CCNS(C)(=O)=O)c3ccccc32)CC1 [Compound 535] | 39 | 97 |  |  |  |

Now from value to compound, other results behind:

| D4 Receptor Binding Assay % inhibition (10^−7 M) (D4 human receptors) [%] | 5-HT1A Receptor Binding Assay % inhibition (10^−7 M) (5-HT1A [2]; CHO membranes, human 5-HT1A) [%] | SMILES | inhibition at 10 µM (5-HT1A [1]) [%] | IC50 (5-HT1A [2]; [3]) [nM] | further results |
| --- | --- | --- | --- | --- | --- |
| 95 | 59 | O=c1n(C/C=C\CN2CCN(c3ccc(Cl)c(Cl)c3)CC2)c2ccccc2n1CCO [Compound 371] |  |  |  |
| 36 | 73 | CS(=O)(=O)NCCn1c(=O)n(C/C=C/CN2CCN(c3ccc(Cl)c(Cl)c3)CC2)c2ccccc21 [Compound 527] |  |  |  |
